Source: patent publication US20230278972A1, “SUBSTITUTED HALOALKYL SULFONANILIDE HERBICIDES” (FMC Corporation, priority 2020, published 2023)

Legend:
Type in all cases: in vivo
rice (Oryza sativa) = experiment: Test B1 flooded paddy test, rice; conditions: 250 g ai/ha, Flood, applied to paddy water, 2-leaf stage, visually evaluated after 10 to 14 days
Description: (§1) A dash (-) response means no test result.

[1] = system: Oat, Wild (wild oat, Avena fatua); experiment: Test A1 postemergence, Oat, Wild; conditions: for Plant response rating, Oat, Wild: Postemergence
How it was run: (§2)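 Herbicidal response was scored on plants treated either preemergence, by directed spray onto soil of a loam–sand blend after sowing, or postemergence on potted plants at the one- to two-leaf stage, 2–10 cm high. Test chemicals were carried in a non-phytotoxic solvent mix with surfactant.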

[2] = system: blackgrass (Alopecurus myosuroides); experiment: Test A1 preemergence, blackgrass
How it was run: (§3)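 Pre: seeds in loam/sand blend, directed soil spray. Post: potted plants, same soil, 2–10 cm, 1–2 leaf stage. Chemicals in non-phytotoxic solvent + surfactant for both.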

[3] = system: Pigweed, Palmer (palmer amaranth, palmer pigweed, Amaranthus palmeri); experiment: Test A1 postemergence, Pigweed, Palmer; conditions: for Plant response rating, Pigweed, Palmer: Postemergence
How it was run: as §2

[4] = system: galium (catchweed bedstraw, Galium aparine); experiment: Test A1 postemergence, galium; conditions: for Plant response rating, Galium: Postemergence
How it was run: as §3

[5] = system: barnyardgrass (Echinochloa crus-galli); experiment: Test B1 flooded paddy test, barnyardgrass; conditions: 250 g ai/ha, Flood, applied to paddy water, 2-leaf stage, visually evaluated after 10 to 14 days
Description: as §1

[6] = system: Foxtail, Giant (giant foxtail, Setaria faberi); experiment: Test A1 preemergence, Foxtail, Giant
How it was run: as §3

[7] = system: goosegrass (Eleusine indica); experiment: Test A1 preemergence, goosegrass
How it was run: as §3

kochia (Bassia scoparia) = experiment: Test A1 postemergence, kochia; conditions: for Plant response rating, Kochia: Postemergence
How it was run: as §3

[8] = 31 g ai/ha, 0 to 100 scale (0 no effect, 100 complete control), 10 days
[9] = 31 g ai/ha, 0 to 100 scale (0 no effect, 100 complete control)
[10] = 125 g ai/ha, 0 to 100 scale, 0 no effect, 100 complete control
[11] = 31 g ai/ha, postemergence, 0 to 100 scale (0 no effect, 100 complete control)

| SMILES | Plant response rating, Rice (0 to 100 scale, 0 is no effect, 100 is complete control) (rice (Oryza sativa)) | Plant response rating, Oat, Wild [1, 8] | Plant response rating, Oat, Wild ([1]; 125 g ai/ha, 0 to 100 scale) | Plant response rating, Blackgrass [2, 9] | Plant response rating, Blackgrass [2, 10] | Plant response rating, Pigweed, Palmer [3, 8] | Plant response rating, Pigweed, Palmer ([3]; 125 g ai/ha, 0 to 100 scale) | Plant response rating, Galium [4, 8] | Plant response rating, Galium ([4]; 125 g ai/ha, 0 to 100 scale) | Plant response rating, Barnyardgrass (0 to 100 scale, 0 is no effect, 100 is complete control) [5] | Plant response rating, Foxtail, Giant [6, 9] | Plant response rating, Foxtail, Giant [6, 10] | Plant response rating, Goosegrass [7, 9] | Plant response rating, Goosegrass [7, 10] | Plant response rating, Kochia (kochia (Bassia scoparia); [8]) | Plant response rating, Kochia (kochia (Bassia scoparia); 125 g ai/ha, 0 to 100 scale) | Oat, Wild plant response rating [1, 11] | Pigweed, Palmer plant response rating [3, 11] | Galium plant response rating [4, 11] | Kochia plant response rating (kochia (Bassia scoparia); [11]) |
| --- | --- | --- | --- | --- | --- | --- | --- | --- | --- | --- | --- | --- | --- | --- | --- | --- | --- | --- | --- | --- |
| CCOC(=O)N(c1cc(C(=O)N2CCC(F)(F)CC2)c(C)cc1C)S(=O)(=O)C(F)(F)F [Compound 351] | 50 | 0 | 10 | 10 | 50 | 10 | 20 | 80 | 100 | 90 | 30 | 100 | 40 | 100 | 10 | 30 |  |  |  |  |
| Cc1cc(C2CC2)c(NS(=O)(=O)C(F)(F)F)cc1C1=NOC2(CCCC2)C1 [Compound 313] | 0 | 0 | 0 | 0 | 0 | 0 | 10 | 0 | 30 | 0 | 0 | 40 | 0 | 20 | 0 | 20 |  |  |  |  |
| Cc1cc(C)c(N(COC(=O)C(C)(C)C)S(=O)(=O)C(F)(F)F)cc1C1=NOC2(C)CCCC12 (centres unmarked) [Compound 341] | 55 | 0 | 20 | 0 | 30 | 0 | 20 | 50 | 80 | 95 | 0 | 50 | 30 | 100 | 20 | 30 |  |  |  |  |
| COC1CCN(C(=O)c2cc(N(COC(=O)C(C)(C)C)S(=O)(=O)C(F)(F)F)c(C)c(C)c2C)CC1 [Compound 370] | 25 |  | 0 | 0 | 0 |  | 20 |  | 100 | 95 | 10 | 90 | 30 | 90 |  | 20 | 0 | 0 | 90 | 0 |
| Cc1c(NS(=O)(=O)C(F)(F)F)cc(C(=O)N2CCCCC2)c(C)c1C [Compound 326] | 0 | 0 | 0 | 0 | 0 | 40 | 80 | 70 | 100 | 0 | 100 | 100 | 90 | 90 | 30 | 70 |  |  |  |  |
| COc1cnn(-c2cc(NS(=O)(=O)C(F)(F)F)c(C)cc2C)c(=O)c1OC [Compound 282] | 0 | 0 | 50 | 30 | 60 | 0 | 0 |  | 0 | 0 | 0 | 30 | 0 | 90 | 10 | 30 |  |  |  |  |
